Experimental findings from ChEMBL document CHEMBL1142306, “Biflavonoids isolated from Selaginella tamariscina regulate the expression of matrix metalloproteinase in human skin fibroblasts” (Bioorg Med Chem, 2008) are described below.

The structures appear in SMILES notation. The source made the active and inactive calls. The rule behind the calls is not given here.

The subject of test [1] is Fibroblast. Put plainly: Inhibition of UVB irradiation-induced MMP1 production in human dermal fibroblasts at 2.5 uM after 48 hrs. In kind it is functional, cell-based.
Test [2] deals with Fibroblast. Put plainly: Inhibition of UVB irradiation-induced MMP1 production in human dermal fibroblasts at 5 uM after 48 hrs. In kind it is functional, cell-based.
Test [3] has as its target 72 kDa type IV collagenase (Homo sapiens) (UniProt P08253). In words: Inhibition of MMP2 in UVB irradiated human dermal fibroblasts at <5 uM by zymography.
The test system of test [4] is Fibroblast. Put plainly: Inhibition of UVB irradiation-induced MMP1 production in human dermal fibroblasts at 1.25 uM after 48 hrs. The class given is functional, cell-based.
Test [5] concerns Fibroblast. Put plainly: Growth inhibition of UVB irradiated human dermal fibroblasts at 5 uM. The class given is functional, cell-based.
For test [6], the system named is Fibroblast. In words: Decrease in cell viability of UVB irradiated human dermal fibroblasts at 5 uM. In kind it is functional.
The test system of test [7] is Fibroblast. Put plainly: Inhibition of UVB irradiation-induced MMP1 production in human dermal fibroblasts after 48 hrs. In kind it is functional, cell-based. As to conditions: for IC50: light or radiation study.
The test system of test [8] is Fibroblast. In words: Decrease in protein content in UVB irradiated human dermal fibroblasts at 5 uM relative to control. In kind it is functional. Also noted: scale not given: the % may be the effect or the level left.
The subject of test [9] is Fibroblast. In words: Growth inhibition of UVB irradiated human dermal fibroblasts at 20 uM. In kind it is functional, cell-based.
The test system of test [10] is Fibroblast. In words: Decrease in protein content in UVB irradiated human dermal fibroblasts at 20 uM relative to control. In kind it is functional. Also noted: scale not given: the % may be the effect or the level left.
Test [11] has as its system Fibroblast. In words: Inhibition of UVB irradiation-induced MMP1 production in human dermal fibroblasts at 20 uM after 48 hrs. The class given is functional, cell-based.
The test system of test [12] is Fibroblast. Put plainly: Inhibition of UVB irradiation-induced MMP1 production in human dermal fibroblasts at 10 uM after 48 hrs. In kind it is functional, cell-based.
In test [13] the test system is Fibroblast. In words: Decrease in cell viability of UVB irradiated human dermal fibroblasts at 20 uM. In kind it is functional.

For orientation: IC50 means the concentration needed to halve the response being measured.

72 kDa type IV collagenase (Homo sapiens), sequence (P08253 110-660 limits assumed): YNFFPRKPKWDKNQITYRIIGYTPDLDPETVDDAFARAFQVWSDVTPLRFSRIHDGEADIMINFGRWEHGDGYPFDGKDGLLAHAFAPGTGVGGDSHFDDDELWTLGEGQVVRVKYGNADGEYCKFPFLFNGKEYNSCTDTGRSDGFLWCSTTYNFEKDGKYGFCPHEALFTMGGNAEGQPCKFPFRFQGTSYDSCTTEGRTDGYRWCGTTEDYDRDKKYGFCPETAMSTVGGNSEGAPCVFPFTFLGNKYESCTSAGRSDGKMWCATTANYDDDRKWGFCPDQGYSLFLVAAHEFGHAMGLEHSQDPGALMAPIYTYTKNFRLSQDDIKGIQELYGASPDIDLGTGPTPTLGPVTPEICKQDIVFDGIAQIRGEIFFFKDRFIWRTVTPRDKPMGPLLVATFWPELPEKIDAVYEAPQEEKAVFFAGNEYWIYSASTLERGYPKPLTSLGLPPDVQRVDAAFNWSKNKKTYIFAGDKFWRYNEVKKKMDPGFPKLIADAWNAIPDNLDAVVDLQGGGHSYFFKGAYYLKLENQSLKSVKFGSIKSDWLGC

`O=c1cc(-c2ccc(O)c(-c3c(O)cc4oc(-c5ccc(O)cc5)cc(=O)c4c3O)c2)oc2cc(O)cc(O)c12`: the outcome in [1], in test [2], in [3] and in test [4] was inactive.

Turning to `O=c1cc(-c2ccc(O)c(-c3c(O)c(O)c(O)c4c(=O)cc(-c5ccc(O)cc5)oc34)c2)oc2cc(O)cc(O)c12` [SUMAFLAVONE], the outcome in [2] and in test [5] was Active. Further, the Activity in [6] was 50%; in test [7] it was “Dose-dependent effect”; in test [8], 50%. Besides, in [3], the outcome was inactive. This molecule also came in with an IC50 in [7] of 780 nM.

As to `O=c1cc(-c2ccc(O)cc2-c2c(O)cc(O)c3c(=O)cc(-c4ccc(O)cc4)oc23)oc2cc(O)cc(O)c12`, the outcome in test [1], in [3] and in test [4] was inactive. Moreover, the result in test [2] and in test [5] was Active. Moreover, the Activity in [6] and in test [8] was 50% in each case.

For `O=c1cc(-c2ccc(O)c(-c3c(O)cc(O)c4c(=O)cc(-c5ccc(O)cc5)oc34)c2)oc2cc(O)cc(O)c12` [AMENTOFLAVONE], in test [2], the result was Active. For the same molecule, the outcome in [3] was inactive. Also, in [7], the Activity result is “Dose-dependent effect” and the IC50 came out at 1800 nM.

In test [7], `CC1=C(/C=C/C(C)=C/C=C/C(C)=C/C(=O)O)C(C)(C)CCC1` [TRETINOIN] yielded a half-inhibitory concentration (IC50) of 10000 nM.

For `O=c1cc(-c2ccc(O)c(-c3c(-c4ccc(O)cc4)oc4cc(O)cc(O)c4c3=O)c2)oc2cc(O)cc(O)c12` [TAIWANIAFLAVONE], the result in [2], in test [3] and in test [12] was inactive. Further, the result in test [9] and in [11] was Active. Moreover, the Activity in test [10] and in test [13] was 50% in each case.
